Measurements published in patent publication US6469027B1, “N-methyl-D-aspartate (NMDA) receptor blockers for the prevention of atherosclerosis” (The Board of Regents of the University of Nebraska, priority 1996, dated 2002).
“Also recorded” adds a separate entry of the source.

Legend:
[1] = tested on: mouse aortic smooth muscle cells; assay: 3H thymidine uptake / mitogenic effect in mouse aortic smooth muscle cells; type: cell-based
Method: The mitogenic and other effects of growth factors are exaggerated in late embryonic or fetal smooth muscle cells, and cells in the late fetal state provide a high contrast picture of their subsequent, post-natal, responses. To take advantage of this effect, late fetal C57BL/6×129 mice were obtained and aortic smooth muscle cell cultures were prepared according to the inventors' previously published methods set forth above. These cells were treated with a series of Hcy dilutions (10 μM-100 μM) as described above. […] Subsequently, the fetal mouse smooth muscle cells were treated with a number of variations of the incubation medium containing the Hcy. In no case did Hcy produce a measurable mitogenic effect. […] Aortic smooth muscle cells were obtained from mice of this strain that were 3-6 months old, and were treated with various concentrations of Hcy.

[2] = tested on: Thoracic aorta VSMC from E14 embryos; assay: Intracellular Ca++ by Fura 2 fluorometry; type: cell-based, chicken; settings: 200 μM Hcy
Method: FIGS. 8A and 8B are graphs illustrating E14 embryonic neural crest-derived response to Hcy. (A) Normal E14 cell response; (B) Ca++ influx is prevented by 15 min pretreatment with NMDA receptor blocker MK801, which acts at the NMDA receptor calcium channel.
The most common signaling device for mitosis is calcium influx. Therefore, the inventors measured the change in intracellular Ca^++ by Fura 2 fluorometry. Thoracic aorta VSMC from E14 embryos were harvested and grown on coverslips using the procedure set forth above. Fura 2 was added during 45 minutes at room temperature. Then the cover slips were placed in a photometer. Fura 2 was excited at 350 and 380 nm with a xenon light source, appropriate monochromators and a chopper (Deltascan, Princeton). Emitted signals passed through a 510±20 band pass filter. When the cells were treated with a solution of 200 μM Hcy, there was a rapid flux of Ca^++ that reached a plateau in about 50 seconds, and remained elevated for the duration of the 500 sec measurement interval as shown in FIGS. 8A and 8B. Similar results have been found with adult rabbit aortic smooth muscle cells, as set forth below.

diacylglycerol = assay: sn-1,2-Diacylglycerol assay in VSMC; type: cell-based, chicken
Method: (§1) FIGS. 7A-7C are graphs illustrating the effect of H[cys] on diacylglycerol content in N-VSMC. (A) Time course of changes of membrane diacylglycerol content cell treated with 100μM H[cys] for the various times. Cells were recovered, membrane lipids extracted and diacylglycerol amounts determined as described in Methods. Results are expressed as the mean ± standard error of quadruplicate incubations from six independent experiments. (B) Effects of varying concentrations of H[cys] on diacylglycerol synthesis. Cells were treated for 30 min with different concentrations of H[cys] and membrane lipids were isolated and the diacylglycerol content determined. (C) Effect of PKC inhibitors on H[cys] mediated cell proliferation. N-VSMC cultures were grown in 1% FBS and 100 μM H[cys] in the presence and absence of staurosporine and cheleyrithrine chloride for the times (days-d) indicated. Cells were counted in quadruplicate in a Coulter counter every three days. Values represent the mean ±S.D. from four independent experiments.
.sn-1,2-Diacylglycerol assay: VSMC were treated with 0.01 to 100 μM H[cys] for 15-60 min. Cells were harvested and lipids were extracted by the method of Priess et al., (18). The analysis of diacylglycerol synthesis was as described previously by Wrenn et al. Wrenn, R. W. et al. (1993). […]

[3] = tested on: human aortic smooth muscle cells; assay: 3H thymidine uptake in human aortic smooth muscle cells; type: cell-based
Method: FIG. 13 is a graph illustrating 3 H thymidine uptake of human aortic smooth muscle cells in response to differing concentrations of Hcy.
Smooth muscle cell cultures were established from samples of thoracic aorta obtained during organ transplantation. Confluent early passage cells were growth arrested by serum starvation, then they were treated with Hcy in serum free (defined) medium.

Rabbit aortic cells = assay: Mitogenesis in rabbit aortic cells; type: cell-based
Method: For each of the following experiments, aortic smooth muscle cells were obtained from 2-3 lb. New Zealand rabbits; these cells were cultured as described above, and evaluated for their responses to Hcy.

N-VSMC = assay: Cell proliferation (cell number) of N-VSMC cultures; type: cell-based, chicken; settings: 100 μM H[cys]; between day 6 and 10; 1% serum
Method: FIGS. 5A and 5B are graphs illustrating cell growth and DNA synthesis of N-VSMC cultures. (A) Cells were cultured in M199 supplemented with 1% FBS in the presence and absence of 100 μM H[cys]. The medium was renewed every three days and cell numbers were determined by Coulter counter or emocytometer. Each point represents the mean of quadruplicate samples counted six times. (B) Cells were grown to confluency, growth arrested in M199 and 1 μg/ml of bovine serum albumin for two days. Cultures were exposed to various concentrations of H[cys] (0.01-1000 μM) for 30 h, pulse labeled for 6 h with 2 μCi/ml of [^3H]thymidine. The amount of [^3H]thymidine incorporation was determined by scintillation spectrophotometry. Results are shown as the mean of ±S.E.M.
as §1
Smooth Muscle Culture: The thoracic (N) and abdominal (M) aorta of normal 16 and 18-day embryos were cleaned of fat, and the intima-media was isolated from the adventitia. The intima-media was enzymatically dispersed into a single cell suspensions by a combination of collagenase and elastase followed by trypsin. VSMC were placed in primary culture at a constant density of 2×10^4 cells/cm^2 in multiwell plates or 100 mm culture plates in Medium 199 supplemented with 10% fetal bovine serum (FMS) and 2 mM glutamine, in an atmosphere of 95% air: 5% Co2 at 37° C. Primary cultures were grown for 7 days before they were seeded into first passage at the same cell density and grown to confluence. Experiments were carried out between passages 3-6. Experimental conditions for all cells included 48 h in Medium 199 supplemented with 1% FBS prior to initiating and experiment.

c-myb = c-myb expression in TA-VSMCs; type: cell-based
[4] = tested on: Rabbit aortic smooth muscle cells; assay: Calcium uptake in rabbit aortic smooth muscle cells; type: cell-based; settings: 10μM for 40 seconds
Method: For each of the following experiments, aortic smooth muscle cells were obtained from 2-3 lb. New Zealand rabbits; these cells were cultured as described above, and evaluated for their responses to Hcy. […] This response is similar to that of the embryonic cells (see above).

SMILES: N[C@@H](CCS)C(=O)O [homocysteine]
- mitogenic effect ([1]; adult C57Bl/6 mice 3-6 months old, various concentrations, listed as Hcy): no mitogenic effect; also recorded: No mitogenic result
- 3H thymidine uptake ([1]; late fetal C57BL/6×129 mice, 10 μM-100 μM): no enhancement
- time for Ca++ flux to reach a plateau [2]: about 50 seconds
- concentration at which increase in DAG membrane levels was first evident (diacylglycerol; 30 min): 3 µM
- increase in DAG production (diacylglycerol; treated for 15-60 min): 3 fold
- effect on DNA synthesis ([3]; human cell cultures of N-VSMC (data not shown)): observed
- uptake of 3H thymidine ([3]; thoracic aorta cells, serum free medium): significant, dose-responsive increase
- mitogenic response (Rabbit aortic cells): robust mitogenic response
- cell number increased (N-VSMC): 9 fold
- c-myb synthesis (c-myb): dose-dependent increase
- concentration of maximal effect on c-myb synthesis (c-myb): < 2.5 mM
- calcium flux [4]: significant calcium flux
